Laboratory results as given in patent publication US4233310A, “Antiarteriosclerotic N-(mercaptoacyl)-histidines” (Santen Pharmaceutical Co., Ltd., priority 1976, dated 1980).

How the values were obtained:
[1] = Hypolipid action in rats fed stock diet (serum and liver lipids); assay type: in vivo, Wistar strain male rats; details: 100 mg/kg orally twice a day for one week; for Liver lipid: Cholesterol content / Liver lipid: Phospholipid content / Liver lipid: Triglyceride content / Serum lipid: Cholesterol content / Serum lipid: Phospholipid content / Serum lipid: Triglyceride content: fasted 16 hours, mean ± standard; for Liver lipid: Cholesterol % / Liver lipid: Phospholipid % / Liver lipid: Triglyceride % / Serum lipid: Cholesterol % / Serum lipid: Phospholipid % / Serum lipid: Triglyceride %: % of control (control = 100)
Procedure: (§1) Pharmacological study (Hypolipid action)
(§2) A 2% aqueous solution of N-(mercaptoacetyl)-L-histidine and N-(3-mercaptopropionyl)-L-histidine, previously neutralized to pH 7.0 with sodium hydroxide, was administered orally to Wistar strain male rats at a dose of 100 mg/kg twice a day for one week. After the final administration of the test solution, the rats were fasted for 16 hours. Cholesterol, triglyceride and phospholipid levels in serum and liver were determined. The rats were divided into two groups. One group was fed a stock diet, and the other a 2% cholesterol-containing diet.
Group fed with stock diet

[2] = Acute toxicity (LD50, intraperitoneal); details: rat, in vivo, ip, 5% solution pH 7.0, 7-day observation, Litchfield-Wilcoxon method
Procedure: ddy Strain male rats, 4 weeks of age, weighing 18-20 g were placed in a room of constant temperature and humidity (24°±1° C., 55+5%) and fed freely a pellet diet (CE-2, made by Clea Japan Inc.) and water for one week. Out of them, rats showing normal growth were selected for the experiment.
N-(3-mercaptopropionyl)-L-histidine was added to physiological saline, and was neutralized to pH 7.0 with 4 N sodium hydroxide a 5% solution of this solution was used as the test solution, being administered intraperitoneally to the rats.

[3] = Hypolipid action in rats fed 2% cholesterol-containing diet (serum and liver lipids); assay type: in vivo, Wistar strain male rats; details: 100 mg/kg orally twice a day for one week; for Liver lipid: Cholesterol content / Liver lipid: Phospholipid content / Liver lipid: Triglyceride content / Serum lipid: Cholesterol content / Serum lipid: Phospholipid content / Serum lipid: Triglyceride content: fasted 16 hours, mean ± standard; for Liver lipid: Cholesterol % / Liver lipid: Phospholipid % / Liver lipid: Triglyceride % / Serum lipid: Cholesterol % / Serum lipid: Phospholipid % / Serum lipid: Triglyceride %: % of control (control = 100)
Procedure: as §1, §2
Group fed with cholesterol containing diet

## O=C(CCS)N[C@@H](Cc1c[nH]cn1)C(=O)O [Compound 2, N-(3-mercaptopropionyl)-L-histidine]
[1]
  Liver lipid: Cholesterol content: 18.9 ± 0.4 mg/total liver weight
  Liver lipid: Phospholipid content: 163.6 ± 1.7 mg/total liver weight
  Liver lipid: Triglyceride content: 30.8 ± 4.5 mg/total liver weight
  Serum lipid: Cholesterol content: 45.4 ± 0.4 mg/dL
  Serum lipid: Phospholipid content: 93.4 ± 4.8 mg/dL
  Serum lipid: Triglyceride content: 49.5 ± 5.5 mg/dL
  Liver lipid: Cholesterol %: 85.9%
  Liver lipid: Phospholipid %: 83.8%
  Liver lipid: Triglyceride %: 77.6%
  Serum lipid: Cholesterol %: 71.4%
  Serum lipid: Phospholipid %: 82.4%
  Serum lipid: Triglyceride %: 57.5%
[2]
  LD50 at 168 h: 4040 mg/kg
[3]
  Liver lipid: Cholesterol content: 60.3 ± 4.0 mg/total liver weight
  Liver lipid: Phospholipid content: 116.4 ± 4.2 mg/total liver weight
  Liver lipid: Triglyceride content: 17.1 ± 1.5 mg/total liver weight
  Serum lipid: Cholesterol content: 246.9 ± 27.8 mg/dL
  Serum lipid: Phospholipid content: 173.9 ± 7.0 mg/dL
  Serum lipid: Triglyceride content: 79.2 ± 4.9 mg/dL
  Liver lipid: Cholesterol %: 96.0%
  Liver lipid: Phospholipid %: 96.4%
  Liver lipid: Triglyceride %: 98.3%
  Serum lipid: Cholesterol %: 81.4%
  Serum lipid: Phospholipid %: 85.5%
  Serum lipid: Triglyceride %: 69.7%

## O=C(CS)N[C@@H](Cc1c[nH]cn1)C(=O)O [Compound 1, N-(mercaptoacetyl)-L-histidine]
[1]
  Liver lipid: Cholesterol content: 19.7 ± 0.8 mg/total liver weight
  Liver lipid: Phospholipid content: 175.1 ± 7.3 mg/total liver weight
  Liver lipid: Triglyceride content: 24.4 ± 2.0 mg/total liver weight
  Serum lipid: Cholesterol content: 53.2 ± 1.9 mg/dL
  Serum lipid: Phospholipid content: 95.1 ± 3.2 mg/dL
  Serum lipid: Triglyceride content: 56.0 ± 5.6 mg/dL
  Liver lipid: Cholesterol %: 89.5%
  Liver lipid: Phospholipid %: 89.7%
  Liver lipid: Triglyceride %: 61.5%
  Serum lipid: Cholesterol %: 83.6%
  Serum lipid: Phospholipid %: 83.9%
  Serum lipid: Triglyceride %: 65.0%
[3]
  Liver lipid: Cholesterol content: 52.4 ± 3.6 mg/total liver weight
  Liver lipid: Phospholipid content: 112.6 ± 5.8 mg/total liver weight
  Liver lipid: Triglyceride content: 17.0 ± 1.4 mg/total liver weight
  Serum lipid: Cholesterol content: 269.5 ± 4.8 mg/dL
  Serum lipid: Phospholipid content: 178.6 ± 9.8 mg/dL
  Serum lipid: Triglyceride content: 81.4 ± 10.2 mg/dL
  Liver lipid: Cholesterol %: 83.4%
  Liver lipid: Phospholipid %: 93.2%
  Liver lipid: Triglyceride %: 97.7%
  Serum lipid: Cholesterol %: 88.7%
  Serum lipid: Phospholipid %: 87.8%
  Serum lipid: Triglyceride %: 71.6%
